Kd data for three compounds are collected here from paper PMC8472786, “Inhibitory Effects of Artificial Sweeteners on Bacterial Quorum Sensing” (International Journal of Molecular Sciences, 2021).

As a reminder, the Kd is the concentration at which binding is half-saturated.

The structures appear in SMILES notation. Where a SMILES comes first, the peptide text is derived from it.

The target of the experiment is T1, LasR (Pseudomonas aeruginosa, UniProt P25084).
T1 construct: full-length LasR
T1 sequence (P25084 whole entry): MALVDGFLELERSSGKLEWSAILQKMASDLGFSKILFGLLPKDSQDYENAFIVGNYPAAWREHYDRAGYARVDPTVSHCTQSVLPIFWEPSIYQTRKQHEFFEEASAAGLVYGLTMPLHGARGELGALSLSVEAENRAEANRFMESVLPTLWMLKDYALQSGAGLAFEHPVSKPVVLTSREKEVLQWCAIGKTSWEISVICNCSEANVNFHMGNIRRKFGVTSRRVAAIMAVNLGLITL
The experiment can be described thus: microscale thermophoresis with fluorescently labeled purified LasR. Format: binding. (Microscale thermophoresis detects binding through changes in fluorescence in a small temperature gradient.)
In turn, `COC(=O)[C@H](Cc1ccccc1)NC(=O)[C@@H](N)CC(=O)O` [aspartame] (H-Asp-Phe-OMe) came in with a Kd of 11.8 µM.
The figure for `O=C1NS(=O)(=O)c2ccccc21` [saccharin] is 12.9 µM; for `OC[C@H]1O[C@H](O[C@]2(CCl)O[C@H](CCl)[C@@H](O)[C@@H]2O)[C@H](O)[C@@H](O)[C@H]1Cl` [sucralose] it is 12.8 µM.
